Measurements: patent publication US10080366B2, “Agent for increasing sugar content in fruit” (RIKEN, priority 2012, dated 2018)
Like-named read-outs stand apart in the source and are kept apart here.

System: fruit of grape in a farm field
Procedure: To the fruit of grape in a farm field before harvest, potassium hydrogen carbonate diluted with water to a concentration of 10 g/L (Table 17) or 20 g/L (Table 18) was applied three times in total at intervals of 7 days. The grape was harvested 21 days after the first application, and the masses of amino acids contained in each of the fruit of grape treated with potassium hydrogen carbonate and untreated fruit of grape were measured. In addition, the degree of increase in the concentration of each amino acid in the grape treated with potassium hydrogen carbonate in comparison with the concentration of the amino acid in the untreated grape was determined as a ratio of “the concentration of the amino acid in the grape treated with potassium hydrogen carbonate/the concentration of the amino acid in the untreated grape.” Moreover, the sugar contents in the grape treated with potassium hydrogen carbonate and the untreated grape were also measured, and the ratio (the sugar content in the grape treated with potassium hydrogen carbonate/the sugar content in the untreated grape) was determined.
Arg: arginine, GluNH2: glutamine, Orn: ornithine, Ala: alanine, NH3: ammonia, Cit: citrulline, AspNH2: asparagine, a-ABA: α-amino-n-butyric acid, Glu: glutamic acid, Asp: aspartic acid, Thr: threonine, Ser: serine, Lys: lysine, His: histidine, Gly: glycine, Phe: phenylalanine, Sar: sarcosine, Val: valine, Cys: cysteine, b-AiBA: β-aminoisobutyric acid, PEA: phosphoethanolamine, a-AAA: α-aminoadipic acid, EOHNH2: ethanolamine, b-Ala: β-alanine, Leu: leucine, g-ABA: […], Ile: isoleucine, Met: methionine, Urea: urea, Trp: tryptophan, Tyr: tyrosine, and Cysthi: cystathionine.

SMILES: O=C([O-])O.[K+] [Potassium hydrogen carbonate, potassium hydrogen carbonate]
- Ala, Ratio treated/untreated (10 g/L x3): 5.229
- Ala, Treated Mass (10 g/L x3): 601.952 ng
- Arg, Ratio treated/untreated (10 g/L x3): 10.658
- Asp, Ratio treated/untreated (10 g/L x3): 2.694
- Asp, Treated Mass (10 g/L x3): 89.293 ng
- AspNH2, Ratio treated/untreated (10 g/L x3): 3.987
- AspNH2, Treated Mass (10 g/L x3): 14.746 ng
- Cit, Ratio treated/untreated (10 g/L x3): 4.673
- Cit, Treated Mass (10 g/L x3): 11.464 ng
- Cys, Ratio treated/untreated (10 g/L x3): 1.154
- Cys, Treated Mass (10 g/L x3): 117.021 ng
- Cysthi, Ratio treated/untreated (10 g/L x3): 0.457
- Cysthi, Treated Mass (10 g/L x3): 1.016 ng
- EOHNH2, Ratio treated/untreated (10 g/L x3): 1.02
- EOHNH2, Treated Mass (10 g/L x3): 53.297 ng
- Glu, Ratio treated/untreated (10 g/L x3): 2.915
- Glu, Treated Mass (10 g/L x3): 1091.265 ng
- GluNH2, Ratio treated/untreated (10 g/L x3): 7.046
- GluNH2, Treated Mass (10 g/L x3): 347.152 ng
- Gly, Ratio treated/untreated (10 g/L x3): 1.553
- Gly, Treated Mass (10 g/L x3): 25.939 ng
- His, Ratio treated/untreated (10 g/L x3): 1.615
- His, Treated Mass (10 g/L x3): 96.252 ng
- Ile, Ratio treated/untreated (10 g/L x3): 0.875
- Ile, Treated Mass (10 g/L x3): 72.435 ng
- Leu, Ratio treated/untreated (10 g/L x3): 1.012
- Leu, Treated Mass (10 g/L x3): 110.503 ng
- Lys, Ratio treated/untreated (10 g/L x3): 1.768
- Lys, Treated Mass (10 g/L x3): 18.865 ng
- Met, Ratio treated/untreated (10 g/L x3): 0.839
- Met, Treated Mass (10 g/L x3): 6.131 ng
- NH3, Ratio treated/untreated (10 g/L x3): 4.713
- NH3, Treated Mass (10 g/L x3): 438.689 ng
- Orn, Ratio treated/untreated (10 g/L x3): 6.692
- Orn, Treated Mass (10 g/L x3): 23.882 ng
- PEA, Ratio treated/untreated (10 g/L x3): 1.032
- PEA, Treated Mass (10 g/L x3): 87.942 ng
- Phe, Ratio treated/untreated (10 g/L x3): 1.527
- Phe, Treated Mass (10 g/L x3): 51.201 ng
- Sar, Ratio treated/untreated (10 g/L x3): 1.271
- Sar, Treated Mass (10 g/L x3): 62.178 ng
- Ser, Ratio treated/untreated (10 g/L x3): 2.585
- Ser, Treated Mass (10 g/L x3): 360.511 ng
- Sugar content, Ratio treated/untreated (10 g/L x3): 1.06
- Sugar content, Treated (10 g/L x3): 22.6%
- Thr, Ratio treated/untreated (10 g/L x3): 2.615
- Thr, Treated Mass (10 g/L x3): 342.259 ng
- Total, Ratio treated/untreated (10 g/L x3): 2.203
- Total, Treated Mass (10 g/L x3): 1082.09 ng
- Trp, Ratio treated/untreated (10 g/L x3): 0.641
- Trp, Treated Mass (10 g/L x3): 4.840 ng
- Tyr, Ratio treated/untreated (10 g/L x3): 0.59
- Tyr, Treated Mass (10 g/L x3): 17.739 ng
- Urea, Ratio treated/untreated (10 g/L x3): 0.757
- Urea, Treated Mass (10 g/L x3): 105.062 ng
- Val, Ratio treated/untreated (10 g/L x3): 1.256
- Val, Treated Mass (10 g/L x3): 191.700 ng
- a-AAA, Ratio treated/untreated (10 g/L x3): 1.031
- a-AAA, Treated Mass (10 g/L x3): 3.261 ng
- a-ABA, Ratio treated/untreated (10 g/L x3): 3.246
- a-ABA, Treated Mass (10 g/L x3): 9.038 ng
- b-AiBA, Ratio treated/untreated (10 g/L x3): 1.129
- b-AiBA, Treated Mass (10 g/L x3): 9.663 ng
- b-Ala, Ratio treated/untreated (10 g/L x3): 1.019
- b-Ala, Treated Mass (10 g/L x3): 197.064 ng
- g-ABA, Ratio treated/untreated (10 g/L x3): 0.891
- g-ABA, Treated Mass (10 g/L x3): 637.915 ng
- Arg, Treated Mass (10 g/L x3, harvest 21 days after first application): 1383.991 ng
- 1Mehis, Ratio treated/untreated (20 g/L x3): 1.167
- 1Mehis, Treated Mass (20 g/L x3): 1.184 ng
- Ala, Ratio treated/untreated (20 g/L x3): 6.161
- Ala, Treated Mass (20 g/L x3): 709.236 ng
- Arg, Ratio treated/untreated (20 g/L x3): 15.532
- Asp, Ratio treated/untreated (20 g/L x3): 2.614
- Asp, Treated Mass (20 g/L x3): 86.648 ng
- AspNH2, Ratio treated/untreated (20 g/L x3): 7.214
- AspNH2, Treated Mass (20 g/L x3): 26.684 ng
- Cit, Ratio treated/untreated (20 g/L x3): 12.285
- Cit, Treated Mass (20 g/L x3): 30.134 ng
- Cys, Ratio treated/untreated (20 g/L x3): 1.41
- Cys, Treated Mass (20 g/L x3): 142.979 ng
- Cysthi, Ratio treated/untreated (20 g/L x3): 0.3
- Cysthi, Treated Mass (20 g/L x3): 0.667 ng
- EOHNH2, Ratio treated/untreated (20 g/L x3): 1.164
- EOHNH2, Treated Mass (20 g/L x3): 76.497 ng
- Glu, Ratio treated/untreated (20 g/L x3): 1.85
- Glu, Treated Mass (20 g/L x3): 693.282 ng
- GluNH2, Ratio treated/untreated (20 g/L x3): 11.395
- GluNH2, Treated Mass (20 g/L x3): 561.408 ng
- Gly, Ratio treated/untreated (20 g/L x3): 1.847
- Gly, Treated Mass (20 g/L x3): 34.546 ng
- His, Ratio treated/untreated (20 g/L x3): 2.312
- His, Treated Mass (20 g/L x3): 137.818 ng
- Ile, Ratio treated/untreated (20 g/L x3): 1.149
- Ile, Treated Mass (20 g/L x3): 95.120 ng
- Leu, Ratio treated/untreated (20 g/L x3): 1.387
- Leu, Treated Mass (20 g/L x3): 151.405 ng
- Lys, Ratio treated/untreated (20 g/L x3): 2.452
- Lys, Treated Mass (20 g/L x3): 26.170 ng
- Met, Ratio treated/untreated (20 g/L x3): 1.325
- Met, Treated Mass (20 g/L x3): 9.698 ng
- NH3, Ratio treated/untreated (20 g/L x3): 4.845
- NH3, Treated Mass (20 g/L x3): 450.976 ng
- Orn, Ratio treated/untreated (20 g/L x3): 11.668
- Orn, Treated Mass (20 g/L x3): 41.643 ng
- PEA, Ratio treated/untreated (20 g/L x3): 1.644
- PEA, Treated Mass (20 g/L x3): 140.112 ng
- Phe, Ratio treated/untreated (20 g/L x3): 1.961
- Phe, Treated Mass (20 g/L x3): 65.750 ng
- Sar, Ratio treated/untreated (20 g/L x3): 1.5191
- Sar, Treated Mass (20 g/L x3): 74.309 ng
- Ser, Ratio treated/untreated (20 g/L x3): 3.553
- Ser, Treated Mass (20 g/L x3): 495.547 ng
- Sugar content, Ratio treated/untreated (20 g/L x3): 1.24
- Sugar content, Treated (20 g/L x3): 25.9%
- Thr, Ratio treated/untreated (20 g/L x3): 3.174
- Thr, Treated Mass (20 g/L x3): 415.421 ng
- Total, Ratio treated/untreated (20 g/L x3): 2.525
- Total, Treated Mass (20 g/L x3): 1239.923 ng
- Trp, Ratio treated/untreated (20 g/L x3): 0.973
- Trp, Treated Mass (20 g/L x3): 7.348 ng
- Tyr, Ratio treated/untreated (20 g/L x3): 0.994
- Tyr, Treated Mass (20 g/L x3): 29.898 ng
- Val, Ratio treated/untreated (20 g/L x3): 1.587
- Val, Treated Mass (20 g/L x3): 242.163 ng
- a-AAA, Ratio treated/untreated (20 g/L x3): 1.408
- a-AAA, Treated Mass (20 g/L x3): 4.352 ng
- a-ABA, Ratio treated/untreated (20 g/L x3): 3.555
- a-ABA, Treated Mass (20 g/L x3): 9.898 ng
- b-AiBA, Ratio treated/untreated (20 g/L x3): 1.12
- b-AiBA, Treated Mass (20 g/L x3): 9.588 ng
- b-Ala, Ratio treated/untreated (20 g/L x3): 1.202
- b-Ala, Treated Mass (20 g/L x3): 232.373 ng
- g-ABA, Ratio treated/untreated (20 g/L x3): 1.811
- g-ABA, Treated Mass (20 g/L x3): 1298.441 ng
- Arg, Treated Mass (20 g/L x3, harvest 21 days after first application): 2018.4554 ng
